Where “and” joins values, the source holds several entries; their conditions need not be identical. Equal values may be shown once.
System: human primary T cells
Assay: Human T cell apoptosis, annexin V
Format: cell-based
Protocol: Annexin V Alexa 488
(ThermoFisher Scientific, Cat# A13201) and SYTOX Blue Dead Cell (ThermoFisher Scientific, Cat# S34857) stains were used to detect apoptosis in DLBCL cells after treatment with 1 µM compounds for 8 days in TMD8 and OCI-Ly1 and for 5 days in OCI-Ly3 cells, then analyzed with flow cytometry. The percentages of cells in early and late apoptosis were combined for […]
quantification. […]
Human T cell apoptosis. Human CD4/CD8 T cells were isolated from blood using Pan T Cell Isolation Kit (Miltenyi Biotec, Cat# 130-096-535), IRB exemption STUDY21080109. T cells were incubated with DynabeadsTM Human T-Activator CD3/CD28 (Thermo Fisher Scientific, Cat# 11131D) for 72 hours after which cells were grown in RPMI containing 10% FBS and IL-2 (Peprotech, Cat# 200-02). T cells were treated with M1i-124 (1 µM) or DMSO control with media change/drug treatment every 2-4 days. Apoptosis was evaluated on day 6 as described previously except that annexin V 647 was utilized (Invitrogen, A23204). Data is from 3 independent donors. […]

SMILES: O=S(=O)(NCc1ccc2c(c1)OCO2)c1ccc(Cc2ccc(S(=O)(=O)NCc3ccc4c(c3)OCO4)cc2)cc1 [M1i-124]
- Annexin (% positivity) (human primary T cells, 1 µM, day 6): 5.305% and 5.353% and 4.227%
- apoptosis of human primary T cells (vs untreated control, result in words): no difference
